The text below walks through data of PubChem BioAssay AID328 (DTP/NCI, 2004).

“And” between values parts separate entries of the source, which are not always exact repeats. Equal values may be shown once. Inconclusive results and toxic doses are left out.

The subject of this assay is BDF1 mice, P388 leukemia ip, median survival T/C. As to the kind of experiment: NCI In Vivo Anticancer Drug Screen. Data for tumor model P388 Leukemia (intraperitoneal) in B6D2F1 (BDF1) mice. The settings on record: endpoint: median survival time, higher = longer survival. Put shortly: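 Read-out is survival of treated animals expressed relative to the vehicle group, as a T/C ratio.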

Where [1] appears, read: dose: 20.0 mg/kg/injection, schedule: Q01DX009 (ip), vehicle: saline.

Consider `CO[C@H](C(=O)[C@@H](O)[C@@H](C)O)[C@@H]1Cc2cc3cc(OC4CC(OC5CC(O)C(O)C(C)O5)C(O)C(C)O4)c(C)c(O)c3c(O)c2C(=O)[C@H]1OC1CC(OC2CC(OC3CC(C)(O)C(O)C(C)O3)C(O)C(C)O2)C(O)C(C)O1` (some centres not stated), for which the T/C runs as follows: (dose: 0.05 mg/kg/injection, schedule: Q01DX009 (ip), vehicle: water) 120 % of control and 110 % of control; (dose: 0.06 mg/kg/injection, schedule: Q01DX001 (ip), vehicle: water) 100 % of control; (dose: 0.1 mg/kg/injection, schedule: Q01DX015 (ip), vehicle: water) 100 % of control; (dose: 0.12 mg/kg/injection, schedule: Q01DX009 (ip), vehicle: clinical formulation) 114 % of control; (dose: 0.12 mg/kg/injection, schedule: Q#A X005 (ip), vehicle: saline) 118 % of control; (dose: 0.13 mg/kg/injection, schedule: Q01DX001 (ip), vehicle: water) 100 % of control. Also, the T/C by setting is: (dose: 0.13 mg/kg/injection, schedule: Q01DX009 (ip), vehicle: saline) 122 % of control; (dose: 0.19 mg/kg/injection, schedule: Q01DX010 (ip), vehicle: saline) 110 % of control; (dose: 0.2 mg/kg/injection, schedule: Q01DX009 (ip), vehicle: water) 150 % of control; (dose: 0.25 mg/kg/injection, schedule: Q01DX001 (im), vehicle: water) 100 % of control; (dose: 0.25 mg/kg/injection, schedule: Q01DX001 (ip), vehicle: water) 104 % of control; (dose: 0.25 mg/kg/injection, schedule: Q01DX005 (ip), vehicle: saline) 100 % of control. Moreover, the T/C was 121 % of control (dose: 0.25 mg/kg/injection, schedule: Q01DX009 (ip), vehicle: clinical formulation); 100 % of control (dose: 0.25 mg/kg/injection, schedule: Q01DX010 (oral), vehicle: saline); 115 % of control (dose: 0.25 mg/kg/injection, schedule: Q01DX015 (ip), vehicle: water); 150 % of control (dose: 0.35 mg/kg/injection, schedule: Q01DX009 (ip), vehicle: water); 95 % of control (dose: 0.5 mg/kg/injection, schedule: Q01DX001 (im), vehicle: water); 100 % of control (dose: 0.5 mg/kg/injection, schedule: Q01DX001 (ip), vehicle: saline). In addition, the T/C reads like this: (dose: 0.5 mg/kg/injection, schedule: Q01DX001 (ip), vehicle: water) 110 % of control; (dose: 0.5 mg/kg/injection, schedule: Q01DX005 (ip), vehicle: saline) 100 % of control; (dose: 0.5 mg/kg/injection, schedule: Q01DX009 (ip), vehicle: water) 150 % of control; (dose: 0.5 mg/kg/injection, schedule: Q01DX010 (oral), vehicle: saline) 100 % of control; (dose: 0.5 mg/kg/injection, schedule: Q02DX005 (ip), vehicle: water) 90 % of control; (dose: 0.5 mg/kg/injection, schedule: Q04DX003 (ip), vehicle: saline) 100 % of control. Besides, the T/C is, setting by setting: (dose: 0.54 mg/kg/injection, schedule: Q01DX005 (ip), vehicle: water) 175 % of control; (dose: 0.65 mg/kg/injection, schedule: Q01DX009 (ip), vehicle: water) 95 % of control; (dose: 0.65 mg/kg/injection, schedule: Q04DX003 (ip), vehicle: water) 115 % of control; (dose: 0.75 mg/kg/injection, schedule: Q01DX010 (ip), vehicle: water) 118 % of control; (dose: 1.0 mg/kg/injection, schedule: Q01DX001 (im), vehicle: water) 108 % of control; (dose: 1.0 mg/kg/injection, schedule: Q01DX001 (ip), vehicle: saline) 100 % of control and 109 % of control. Further, the T/C by setting is: (dose: 1.0 mg/kg/injection, schedule: Q01DX009 (ip), vehicle: clinical formulation) 191 % of control; (dose: 1.0 mg/kg/injection, schedule: Q01DX009 (ip), vehicle: saline) 94 % of control and 95 % of control; (dose: 1.0 mg/kg/injection, schedule: Q01DX010 (oral), vehicle: saline) 100 % of control; (dose: 1.0 mg/kg/injection, schedule: Q04DX003 (ip), vehicle: saline) 91 % of control and 118 % of control; (dose: 1.08 mg/kg/injection, schedule: Q04DX003 (ip), vehicle: water) 113 % of control; (dose: 1.5 mg/kg/injection, schedule: Q01DX010 (ip), vehicle: saline) 180 % of control. Moreover, the T/C was 91 % of control (dose: 1.5 mg/kg/injection, schedule: Q01DX010 (oral), vehicle: water); 103 % of control (dose: 1.8 mg/kg/injection, schedule: Q04DX003 (ip), vehicle: water); 118 % of control (dose: 2.0 mg/kg/injection, schedule: Q01DX001 (ip), vehicle: saline); 31 % of control (dose: 2.0 mg/kg/injection, schedule: Q01DX009 (ip), vehicle: saline); 100 % of control (dose: 2.0 mg/kg/injection, schedule: Q01DX010 (oral), vehicle: saline); 91 % of control (dose: 2.0 mg/kg/injection, schedule: Q01DX010 (oral), vehicle: water). Further, the T/C is 91 % of control (dose: 2.5 mg/kg/injection, schedule: Q01DX010 (oral), vehicle: water); 100 % of control (dose: 50.0 mg/kg/injection, schedule: Q01DX010 (ip), vehicle: water); 100 % of control (dose: 7.5 micrograms/kg/injection, schedule: Q03HX008 (ip), vehicle: saline); 95 % of control (dose: 7.5 micrograms/kg/injection, schedule: Q04DX024 (ip), vehicle: saline); 109 % of control (dose: 63.0 micrograms/kg/injection, schedule: Q01DX010 (ip), vehicle: saline); 100 % of control (dose: 94.0 micrograms/kg/injection, schedule: Q01DX010 (ip), vehicle: saline). Moreover, the T/C runs as follows: (dose: 125.0 micrograms/kg/injection, schedule: Q01DX010 (ip), vehicle: saline) 118 % of control; (dose: 188.0 micrograms/kg/injection, schedule: Q01DX010 (ip), vehicle: saline) 113 % of control; (dose: 375.0 micrograms/kg/injection, schedule: Q01DX010 (ip), vehicle: saline) 113 % of control.
As to `CCC(=O)OC1CC2(C)C(=CC1=O)CCC1C2CCC2(C)C(OC(=O)CC)CCC12` (configuration not stated), the T/C (dose: 100.0 mg/kg/injection, schedule: Q01DX001 (ip), vehicle: Klucel (hydroxypropylcellulose) (HPC)) is 90 % of control; the T/C (dose: 100.0 mg/kg/injection, schedule: Q01DX009 (ip), vehicle: Klucel (hydroxypropylcellulose) (HPC)) is 104 % of control; the T/C (dose: 100.0 mg/kg/injection, schedule: Q04DX003 (ip), vehicle: Klucel (hydroxypropylcellulose) (HPC)) is 108 % of control; the T/C (dose: 200.0 mg/kg/injection, schedule: Q01DX001 (ip), vehicle: Klucel (hydroxypropylcellulose) (HPC)) is 95 % of control; the T/C (dose: 200.0 mg/kg/injection, schedule: Q01DX009 (ip), vehicle: Klucel (hydroxypropylcellulose) (HPC)) was 109 % of control; the T/C (dose: 200.0 mg/kg/injection, schedule: Q04DX003 (ip), vehicle: Klucel (hydroxypropylcellulose) (HPC)) is 100 % of control. Moreover, the T/C was 100 % of control (dose: 400.0 mg/kg/injection, schedule: Q01DX001 (ip), vehicle: Klucel (hydroxypropylcellulose) (HPC)); 109 % of control (dose: 400.0 mg/kg/injection, schedule: Q01DX009 (ip), vehicle: Klucel (hydroxypropylcellulose) (HPC)); 95 % of control (dose: 400.0 mg/kg/injection, schedule: Q04DX003 (ip), vehicle: Klucel (hydroxypropylcellulose) (HPC)).
`CN(N=O)C(=O)NCCSSCCNC(=O)N(C)N=O`: the T/C (dose: 53.0 mg/kg/injection, schedule: Q04DX003 (ip), vehicle: saline with Tween-80) is 120 % of control; the T/C (dose: 80.0 mg/kg/injection, schedule: Q04DX003 (ip), vehicle: saline with Tween-80) was 170 % of control; the T/C (dose: 120.0 mg/kg/injection, schedule: Q04DX003 (ip), vehicle: saline with Tween-80) was 100 % of control.
With `Clc1nc(NCc2ccccc2)c2cn[nH]c2n1`, the T/C was 91 % of control (dose: 25.0 mg/kg/injection, schedule: Q01DX009 (ip), vehicle: saline with Tween-80); 91 % of control (dose: 50.0 mg/kg/injection, schedule: Q01DX009 (ip), vehicle: saline with Tween-80); 91 % of control (dose: 100.0 mg/kg/injection, schedule: Q01DX009 (ip), vehicle: saline with Tween-80).
In the case of `C[N+](C)(C)CCOC(=O)/C=C/c1cnc[nH]1`, the T/C runs as follows: (dose: 5.0 mg/kg/injection, schedule: Q01DX009 (ip), vehicle: saline) 97 % of control; (dose: 10.0 mg/kg/injection, schedule: Q01DX009 (ip), vehicle: saline) 95 % of control; under setting [1], 117 % of control.
For `CN=C(N)c1ccc(N=C(N)c2ccc(C(N)=Nc3ccc(C(N)=NC)cc3)cc2)cc1`, the T/C reads like this: (dose: 13.2 mg/kg/injection, schedule: Q01DX009 (ip), vehicle: saline) 150 % of control and 172 % of control; under setting [1], 240 % of control and 218 % of control; (dose: 30.0 mg/kg/injection, schedule: Q01DX009 (ip), vehicle: saline) 268 % of control and 218 % of control.
